The source of these data is patent publication US7588913B2, “Process for the preparation of cephradine” (DSM IP Assets B.V., priority 2003, dated 2009).

Series [1] is classed as physicochemical. As for the experimental part:
(§1) The coloration of cephradine hydrate was determined by the absorbance at 450 nm. The absorbance and stress stability of the cephradine hydrate prepared as described above were determined. • 1. Absorbance
(§2) 1 g of cephradine hydrate was dissolved in 10 ml 10% aqueous sodium carbonate solution. The absorbance was determined at 450 nm (=A450) on a Perkin Elmer 550 S spectrophotometer, with 10% aqueous sodium carbonate solution as a reference solution at room temperature. • 2. Stress Stability Test 1.
Cephradine hydrate prepared enzymatically according to Example III and chemically according to Reference Experiment B) was kept at 40° C. at a relative humidity of 75%. After 0, 2, 4, 6 8, 10 and 12 weeks the absorbance at 450 nm was determined as described above.

The nature of series [2]: Coloration of cephradine hydrate: absorbance at 450 nm. The series is classed as physicochemical. The settings on record: before stress stability test, crystallisation pH 4.80. On the procedure:
The coloration of cephradine hydrate was determined by the absorbance at 450 nm. The absorbance and stress stability of the cephradine hydrate prepared as described above were determined. • 1. Absorbance 1 g of cephradine hydrate was dissolved in 10 ml 10% aqueous sodium carbonate solution. The absorbance was determined at 450 nm (=A450) on a Perkin Elmer 550 S spectrophotometer, with 10% aqueous sodium carbonate solution as a reference solution at room temperature. • 2. Stress Stability Test 1.

Series [3] is described as follows: Stress stability test 2 (3 hrs at 100° C., A450). The settings on record: for A450 after stress stability test (3 h, 100° C.): crystallisation pH 4.80, hydrate. It is filed as physicochemical. As for the experimental part:
as §1, §2
Cephradine hydrate prepared enzymatically according to Example III and crystallised at different temperatures as indicated in Table 3 was maintained during 3 hrs at 100° C. The A450 of the cephradine crystals thus treated was determined as described above.

Like-named read-outs stand apart in the source and are kept apart here.

`CC1=C(C(=O)O)N2C(=O)[C@@H](NC(=O)[C@H](N)C3=CCC=CC3)[C@H]2SC1` [Cephradine prepared chemically, cephradine hydrate]: the “A450 (color stability)” value in series [1] (0 weeks) came to 0.028; in series [1] (2 weeks), 0.065; in series [1] (4 weeks), 0.077; in series [1] (6 weeks) it was 0.161; in series [1] (8 weeks) it was 0.142; in series [1] (10 weeks), 0.211.

As for `CC1=C(C(=O)O)N2C(=O)[C@@H](NC(=O)[C@H](N)C3=CCC=CC3)[C@H]2SC1` [IV, cephradine hydrate], the “A450 at t = 0” value in series [2] is given as 0.051. In addition, in series [3], the “A450 after stress stability test (3 h, 100° C.)” value (“A450 after stress stability test” below) was determined as 0.301.

Take `CC1=C(C(=O)O)N2C(=O)[C@@H](NC(=O)[C@H](N)C3=CCC=CC3)[C@H]2SC1` [V, cephradine hydrate]: the “A450 at t = 0” value in series [2] was determined as 0.018. In series [3], the “Color stability of cephradine crystals versus crystallization temperature” value is given as “superior values” and the “A450 after stress stability test” value was found to be 0.056.

`CC1=C(C(=O)O)N2C(=O)[C@@H](NC(=O)[C@H](N)C3=CCC=CC3)[C@H]2SC1` [VI, cephradine hydrate]: the “A450 at t = 0” value in series [2] stood at 0.021. Also, in series [3], the “A450 after stress stability test” value is 0.291.

With `CC1=C(C(=O)O)N2C(=O)[C@@H](NC(=O)[C@H](N)C3=CCC=CC3)[C@H]2SC1` [VII, cephradine hydrate], in series [2], the “A450 at t = 0” value was 0.017. In addition, the “A450 after stress stability test” value in series [3] was 0.330.
